Reference: US6841661B2, “Glycopeptide antibacterial compounds, compositions containing same and methods of using same” (Princeton Univerisity, priority 1999, dated 2005)
≈ marks a conversion by molar mass, not a printed value. Like-named read-outs stand apart in the source and are kept apart here.

Experiments:
VISA/MRSA CL 5706 = test: In vitro MIC panel assay (NCCLS broth microdilution); type: cell-based, S. aureus; conditions: Staphylococcus aureus
Text: (§1) National Committee for Clinical Laboratory Standards (NCCLS) guidelines [Methods for Dilution Antimicrobial Susceptibility Tests for Bacteria that Grow Aerobically-Fourth Edition; Approved Standard (NCCLS Document M7-A4, January 1997)] are used to establish the assay, although variations are made to optimize the published method according to the specific needs of the present investigation.
(§2) The test panel currently includes eight enterococci and 13 staphylococci, which are selected based upon their antibiotic susceptibility profiles. The methicillin-sensitive Staphylococcus aureus (MSSA) strain MB2985 (Smith isolate) is used to assesses the potential for serum protein binding of the compounds. The paired Gram-negative strains ASP #49 (envA-) and ASP #50 (envA+) (M. Salvatore/N. Lee) are included to judge membrane effects. Table 3 presents a detailed description of the strains included in the panel, including some of the sources of the strains of bacteria.
(§3) The glycopeptide antibiotic teicoplanin is included whenever possible. […]
(§4) The number of CFU/mL is determined on BHI agar plates, although this is not done routinely because titers of overnight cultures are relatively constant. […]

VISA/MRSA CL 5705 = test: as above; type: cell-based, S. aureus; conditions: Staphylococcus aureus
Text: as §1, §2, §3, §4

MRCNS CL 171 (S. haem.) = test: as above; type: cell-based
Text: as §1, §2
(§5) The glycopeptide antibiotic teicoplanin is included whenever possible.
(§6) TSB, containing 10% HS* for vancomycin intermediate S. aurcus/methicillin-resistant S. aureus (VISA/MRSA) strains, is inoculated from an appropriate source (frozen broth or agar slant) and grown approximately 17 hr at 35° C. with shaking at 220 rpm. Cultures are grown in tubes with a volume of 5 ml for enterococci and 2 ml for all other strains.
(§7) Four milliliter (4 ml) overnight culture is added to 36 ml physiological saline to obtain tenfold dilutions (enterococci). Overnight culture (0.4 ml) is added to 39.6 ml saline to obtain 100-fold dilutions (all strains except enterococci). Diluted cultures are maintained on ice until time of inoculation of test plates.
(§8) The number of CFU/mL is determined on BHI agar plates, although this is not done routinely because titers of overnight cultures are relatively constant. The test media include: • BHI for enterococci and VISA/MRSA; • MH II (i.e., cation-adjusted Mueller-Hinton broth) for MRS, MSS and E. coli.; • MH II+HSA for MSSA is prepared as follows: • a. 2×MHII+86mg/ml HSA • b. Dissolve 4.3 g HSA in 50 ml autoclaved 2x MH II. • c. pH to 7.0 by adding 2M MOPS, sodium. • d. Filter sterilize using 0.22 μm Coming cellulose acetate filter, used because of reported low protein binding. • e. 1×MH II+43 mg/ml HSA • f. Dilute the 2×medium twofold and filter as above. 5.8.6. Preparation of Test Plates
(§9) Using a Denley liquid handling system (or similar automatic device), 100 μ1×medium is added to each well in columns 2-12 of a 96-well microtiter dish. Using a multichannel pipettor, 100 μl 2×medium is added to each well in column 1. Plates may be filled on the day prior to assay, wrapped in plastic bags and refrigerated.
(§10) Vancomycin, Schering 29482, and teicoplanin are prepared on a weight per volume basis using 10 mM 3-(N-morpholino)propane-sulfonic acid (MOPS) buffer pH 7. Test compounds are received in solution in appropriate solvent (typically as 1 mg/ml in DMSO) or are dissolved in appropriate solvent prior to further dilution in 10 mM MOPS buffer, ph7. Consistent with NCCLS guidelines, antibiotics are handled aseptically but are not otherwise sterilized.
(§11) 100 μl appropriately diluted antibiotic solution is added to the first well of the designated row of the 96-well microtiter dish and serially diluted by twofold across the row using the Denley liquid handling system. With the aid of a Dynatech NEC 2000 inoculator, each well of the microtiter dish is inoculated with 1.5 μl diluted overnight culture, yielding approximately 1-5×10^6 CFU/ml for enterococci and approximately 3-7×10^5 CFU/ml for all other strains. Dishes are placed in stacks of no more than five, wrapped in plastic bags and incubated at 35° C. • Indication of result(s) type (% INH, IC50, Zone size, etc.) • MIC=minimum inhibitory concentration ps 5.8.9. Interpretation of the Results on the Basis of Activity […]

[1] = system: E. faecalis CL 5244 (VanB); test: as above; type: cell-based; conditions: Enterococcus faecalis
Text: as §1, §2, §5, §6, §7, §8, §9, §10, §11

MRSA COL = test: as above; type: cell-based; conditions: Staphylococcus aureus
Text: as §1, §2, §5, §6, §7, §8, §9, §10, §11

E. coli ASP #49 (envA-) = test: as above; type: cell-based; conditions: Escherichia coli
Text: as §1, §2, §5, §6, §7, §8, §9, §10, §11

[2] = system: E. gallinarum CL 4886 (VanC); test: as above; type: cell-based; conditions: Enterococcus gallinarum
Text: as §1, §2, §5, §6, §7, §8, §9, §10, §11

MRCNS CL 3069 (S. epi.) = test: as above; type: cell-based
Text: as §1, §2, §5, §6, §7, §8, §9, §10, §11

E. faecalis MB2864 = test: as above; type: cell-based; conditions: Enterococcus faecalis
Text: as §1, §2, §5, §6, §7, §8, §9, §10, §11

MRCNS CL 202 (S. haem.) = test: as above; type: cell-based
Text: as §1, §2, §5, §6, §7, §8, §9, §10, §11

E. faecium RLA1 = test: as above; type: cell-based; conditions: Enterococcus faecium
Text: as §1, §2, §5, §6, §7, §8, §9, §10, §11

MRCNS CL 227 (S. hom.) = test: as above; type: cell-based
Text: as §1, §2, §5, §6, §7, §8, §9, §10, §11

MRCNS CL 546 (S. hom.) = test: as above; type: cell-based
Text: as §1, §2, §5, §6, §7, §8, §9, §10, §11

[3] = system: MSSA MB2985 (Smith isolate); test: In vitro MIC panel assay, without and with Human Serum Albumin; type: cell-based, Staphylococcus aureus
Text: as §1, §2, §3, §4

[4] = system: CL 4931, CL 5053, CL 5242 and CL 4877; type: cell-based, E. faecium, E. faecalis
How it was run: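 NCCLS M7-A4-based broth microdilution with twofold serial dilutions, incubated at 35° C; medium BHI for enterococci and VISA/MRSA, cation-adjusted Mueller-Hinton for E. coli. Inoculum about 1-5×10^6 CFU/ml (enterococci) or 3-7×10^5 CFU/ml (others); MIC is lowest concentration with no visible growth, read at 18-20 hr for E. coli, 22-24 hr otherwise.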

Question: What does the source list for `CN[C@H](CC(C)C)C(=O)N[C@H]1C(=O)N[C@@H](CC(N)=O)C(=O)N[C@H]2C(=O)N[C@H]3C(=O)N[C@H](C(=O)N[C@H](C(=O)O)c4cc(O)cc(O)c4-c4cc3ccc4O)[C@H](O)c3ccc(c(Cl)c3)Oc3cc2cc(c3O[C@@H]2O[C@H](CO)[C@@H](O)[C@H](O)[C@H]2O[C@H]2C[C@](C)(N)[C@H](O)[C@H](C)O2)Oc2ccc(cc2Cl)[C@H]1O` [Vancomycin, vancomycin, reference compound]?
Answer: MIC (VISA/MRSA CL 5706): 4 to 8 mg/L (≈ 2.76 to 5.52 µM); MIC (VISA/MRSA CL 5705): 2 to 4 mg/L (≈ 1.38 to 2.76 µM); MIC (MRCNS CL 171 (S. haem.)): 2 mg/L (≈ 1.38 µM); MIC [1]: 32 mg/L (≈ 22.1 µM); MIC (MRSA COL): 1 mg/L (≈ 0.69 µM); MIC (E. coli ASP #49 (envA-)): 32 mg/L (≈ 22.1 µM); MIC [2]: 16 mg/L (≈ 11 µM); MIC (MRCNS CL 3069 (S. epi.)): 2 mg/L (≈ 1.38 µM); MIC (E. faecalis MB2864): 2 mg/L (≈ 1.38 µM); MIC (MRCNS CL 202 (S. haem.)): 2 mg/L (≈ 1.38 µM); MIC (E. faecium RLA1): 2 mg/L (≈ 1.38 µM); MIC (MRCNS CL 227 (S. hom.)): 1 mg/L (≈ 0.69 µM); MIC (MRCNS CL 546 (S. hom.)): 1 mg/L (≈ 0.69 µM); MIC ([3]; MSSA MB2985 + HSA, MH II broth ctg. 43 mg/ml Human Serum Albumin Frac. V): 1 mg/L; N-fold MIC inc. + HSA ([3]; MSSA MB2985, MIC with HSA relative to without): (1) fold; Mean ([4]; Table 9, mean MIC over CL4931, CL5053, CL5242, CL4877): 1664.0; Mean ([4]; Table 10, mean MIC over CL4931, CL5053, CL5242, CL4877): 1536.0; Mean ([4]; mean of CL4931, CL5053, CL5242, CL4877, unit not given): 1664.0
